Measurements reported in patent publication US6225478A, “Iridoid derivatives and neovascularization inhibitors containing the same as active ingredient” (Tsumura & Co., priority 1999, dated 2001).

Columns and labels:
[1] = system: human umbilical-vein endothelial cells (HUVEC); assay: Tube Formation Assay (TFA) Test, HUVEC in collagen gel; type: cell-based; conditions: Tables 75-83, 0.32 mM sample solution, method as for Compounds 1 through 60; for inhibition at 320 µM (stock): Homo sapiens, HUVEC, read-out: TFA Inhibition rate (%)
Outline: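 HUVEC (7th subculture, 1×10^5 cells/ml) attached to collagen gel for 2 h at 37 °C, given sample and overlaid with collagen, then cultured 20 h at 37 °C, 5% CO2 in M-199 with 20% FCS, 30 ng/ml b-FGF and 0.1 μM PMA. Tube length measured by image analysis; % inhibition relative to positive and negative controls.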

HUFEC = assay: Cell Migration Assay (CMA) Test, inhibitory rate with control (-) correction; type: cell-based, human; conditions: 125 μl of 0.32 mM sample solution in 4.0 ml medium, 80% or more = remarkable; for inhibition at 320 µM (stock): Homo sapiens, 24 h
Outline: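 Confluent HUFEC monolayers were scratch-wounded, then cultured 24 h at 37 °C, 5% CO2 in M199 (2+) medium with compound added as 125 μl of a 0.32 mM solution (3.2% DMSO) per 4 ml. Giemsa-stained cells migrating into 1 mm×1 mm blocks counted; inhibition % calculated relative to control (+) and control (−) wells.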

For `COC(=O)C1=CO[C@@H](OC(=O)NCCCN2CCOCC2)[C@H]2[C@@H]1CC[C@@H]2C` [I-229], the inhibition at 320 µM (stock) [1] was 3% and the inhibition at 320 µM (stock) (HUFEC) was 19.5%.

For `C=CCNC(=O)O[C@@H]1OC=C(C(=O)OC)[C@H]2CC=C(C)[C@@H]12` [I-123], the inhibition at 320 µM (stock) [1] was 14.1% and the inhibition at 320 µM (stock) (HUFEC) was 8%.

With `COCCCNC(=O)O[C@@H]1OC=C(C(=O)OC)[C@H]2CC[C@H](C)[C@@H]12` [I-226] the inhibition at 320 µM (stock) [1] was 15.3% and the inhibition at 320 µM (stock) (HUFEC) was 17.2%.

`COC(=O)C1=CO[C@@H](OC(=O)NCCCl)[C@@H]2C(C)=CC[C@H]12` [I-173] gave an inhibition at 320 µM (stock) [1] of 11.4% and an inhibition at 320 µM (stock) (HUFEC) of 108%.

Compound `COC(=O)C1=CO[C@@H](OC(=O)N(CCO)CCO)[C@@H]2C(C)=CC[C@H]12` [I-138] has an inhibition at 320 µM (stock) [1] of 2.5% and an inhibition at 320 µM (stock) (HUFEC) of 3.5%.

Work on `COC(=O)C1=CO[C@@H](OC(=O)N2CCCCC2)[C@@H]2C(C)=CC[C@H]12` [I-111] yielded an inhibition at 320 µM (stock) [1] of 2.9% and an inhibition at 320 µM (stock) (HUFEC) of 9.4%.

`COC(=O)C1=CO[C@@H](OC(=O)NCC#N)[C@@H]2C(C)=CC[C@H]12` [I-132] showed an inhibition at 320 µM (stock) [1] of 3.9% and an inhibition at 320 µM (stock) (HUFEC) of 15.6%.

In the case of `CNC(=O)O[C@@H]1OC=C(C(=O)NC)[C@H]2CC=C(C)[C@@H]12` [I-310], the inhibition at 320 µM (stock) [1] is reported as 20.1% and the inhibition at 320 µM (stock) (HUFEC) is reported as 20.7%.

`CCOC(=O)C1=COC(OC(=O)NC)C2C1CC1OC12CO` (stereo not drawn) [I-279] showed an inhibition at 320 µM (stock) [1] of 13.2% and an inhibition at 320 µM (stock) (HUFEC) of 45.1%.

For `COC(=O)C1=CO[C@@H](OC(=O)NCCc2ccccc2)[C@@H]2C(C)=CC[C@H]12` [I-119], the inhibition at 320 µM (stock) [1] was 4.2% and the inhibition at 320 µM (stock) (HUFEC) was 18.8%.

`COC(=O)C1=CO[C@@H](OC(=O)N2CCC2)[C@H]2[C@@H]1CC[C@@H]2C` [I-250] was tested, and the inhibition at 320 µM (stock) [1] was 4.1% and the inhibition at 320 µM (stock) (HUFEC) was 8%.

`CNC(=O)OC[C@]12O[C@H]1C[C@@H]1C(C(=O)OC)=COC[C@@H]12` [I-290] was tested, and the inhibition at 320 µM (stock) [1] was 13.5% and the inhibition at 320 µM (stock) (HUFEC) was 51.5%.

With `COC(=O)C1=CO[C@@H](OC(=O)NCCc2c[nH]c3ccccc23)[C@@H]2C(C)=CC[C@H]12` [I-115] the inhibition at 320 µM (stock) [1] was 6.8% and the inhibition at 320 µM (stock) (HUFEC) was 3.1%.

In the case of `CCCCCCC1=CC[C@@H]2C(C(=O)OC)=CO[C@@H](OC(=O)NC)[C@H]12` [I-299], the inhibition at 320 µM (stock) [1] is reported as 8.8% and the inhibition at 320 µM (stock) (HUFEC) is reported as 5.9%.

With `CCN1CCN(C(=O)O[C@@H]2OC=C(C(=O)OC)[C@H]3CC[C@H](C)[C@@H]23)CC1` [I-200] the inhibition at 320 µM (stock) [1] was 5.6% and the inhibition at 320 µM (stock) (HUFEC) was 25%.

Work on `COC(=O)C1=CO[C@@H](OC(=O)NC2CC2)[C@@H]2C(C)=CC[C@H]12` [I-113] yielded an inhibition at 320 µM (stock) [1] of 7.9% and an inhibition at 320 µM (stock) (HUFEC) of 34.4%.

Compound `CNC(=O)O[C@@H]1OC=C(C(=O)NCc2nc3ccccc3[nH]2)[C@H]2C[C@@H]3O[C@]3(C)[C@@H]12` [I-63] has an inhibition at 320 µM (stock) [1] of 41.7% and an inhibition at 320 µM (stock) (HUFEC) of 14.2%.

For `COC(=O)C1=CO[C@@H](OC(=O)NCc2nc3ccccc3[nH]2)[C@H]2[C@@H]1CC[C@@H]2C` [I-252], the inhibition at 320 µM (stock) [1] was 5.4% and the inhibition at 320 µM (stock) (HUFEC) was 8.2%.

With `CNC(=O)O[C@@H]1OC=C(C(=O)O)[C@H]2CC=C(C)[C@@H]12` [I-313] the “TFA (inhibition rate, %)” value [1] was 27.0% and the “CMA Inhibition rate (%)” value (HUFEC; 24 hours) was 60.2%.

Compound `COC(=O)C1=CO[C@@H](OC(=S)N(C)C)[C@H]2[C@@H]1C[C@@H]1O[C@]21C` [I-284] has an inhibition at 320 µM (stock) [1] of 23.1% and an inhibition at 320 µM (stock) (HUFEC) of 32.5%.

In the case of `COC(=O)C1=CO[C@@H](OC(=O)Nc2ccc(Br)cc2)[C@H]2[C@@H]1CC[C@@H]2C` [I-259], the inhibition at 320 µM (stock) [1] is reported as 2.9% and the inhibition at 320 µM (stock) (HUFEC) is reported as 5%.

Work on `COC(=O)C1=CO[C@@H](OC(=O)NCc2ccccn2)[C@H]2[C@@H]1CC[C@@H]2C` [I-177] yielded an inhibition at 320 µM (stock) [1] of 15% and an inhibition at 320 µM (stock) (HUFEC) of 5%.

`CCN(CCO)C(=O)O[C@@H]1OC=C(C(=O)OC)[C@H]2CC[C@H](C)[C@@H]12` [I-203] showed an inhibition at 320 µM (stock) [1] of 15.8% and an inhibition at 320 µM (stock) (HUFEC) of 5.9%.

`COC(=O)C1=CO[C@@H](OC(=O)NCCCCl)[C@H]2[C@@H]1CC[C@@H]2C` [I-244] showed an inhibition at 320 µM (stock) [1] of 5.2% and an inhibition at 320 µM (stock) (HUFEC) of 19.5%.

Compound `C=CCN(CC=C)C(=O)O[C@@H]1OC=C(C(=O)OC)[C@H]2CC[C@H](C)[C@@H]12` [I-230] has an inhibition at 320 µM (stock) [1] of 6.4% and an inhibition at 320 µM (stock) (HUFEC) of 28.7%.

`COC(=O)C1=CO[C@@H](OC(=O)NCc2cccc(F)c2)[C@@H]2C(C)=CC[C@H]12` [I-127] was tested, and the inhibition at 320 µM (stock) [1] was 5.3% and the inhibition at 320 µM (stock) (HUFEC) was 5.3%.

In the case of `COC(=O)C1=CO[C@@H](OC(=O)Nc2ccccc2)[C@@H]2C(C)=CC[C@H]12` [I-170], the inhibition at 320 µM (stock) [1] is reported as 12.9% and the inhibition at 320 µM (stock) (HUFEC) is reported as 6.7%.

`COC(=O)C1=CO[C@@H](OC(=O)N2CC=C(c3ccccc3)CC2)[C@H]2[C@@H]1CC[C@@H]2C` [I-242] was tested, and the inhibition at 320 µM (stock) [1] was 4.8% and the inhibition at 320 µM (stock) (HUFEC) was 5.1%.

Work on `COC(=O)C1=CO[C@@H](OC(=O)NCC2CCCO2)[C@@H]2C(C)=CC[C@H]12` (stereo partly drawn) [I-78] yielded an inhibition at 320 µM (stock) [1] of 5.1% and an inhibition at 320 µM (stock) (HUFEC) of 23.4%.

With `COC(=O)C1=CO[C@@H](OC(=O)Nc2ccc(F)cc2)[C@@H]2C(C)=CC[C@H]12` [I-156] the inhibition at 320 µM (stock) [1] was 10.9% and the inhibition at 320 µM (stock) (HUFEC) was 5.8%.

For `COC(=O)C1=CO[C@@H](OC(=O)NCc2cccc(C(F)(F)F)c2)[C@H]2[C@@H]1CC[C@@H]2C` [I-233], the inhibition at 320 µM (stock) [1] was 4.1% and the inhibition at 320 µM (stock) (HUFEC) was 5.5%.

For `COC(=O)C1=COC[C@@H]2C(C(=O)N3CCN(CCO)CC3)=CC[C@H]12` [I-293], the inhibition at 320 µM (stock) [1] was 11.2% and the inhibition at 320 µM (stock) (HUFEC) was 69.3%.

Compound `COC(=O)C1=CO[C@@H](OC(=O)Nc2ccccc2F)[C@H]2[C@@H]1CC[C@@H]2C` [I-257] has an inhibition at 320 µM (stock) [1] of 3.5% and an inhibition at 320 µM (stock) (HUFEC) of 8%.

Compound `COC(=O)C1=CO[C@@H](OC(=O)NCCS)[C@H]2[C@@H]1CC[C@@H]2C` [I-236] has an inhibition at 320 µM (stock) [1] of 10.4% and an inhibition at 320 µM (stock) (HUFEC) of 28.1%.

`CCCCCCNC(=O)O[C@@H]1OC=C(C(=O)OC)[C@H]2CC=C(C)[C@@H]12` [I-72] showed an inhibition at 320 µM (stock) [1] of 5.9% and an inhibition at 320 µM (stock) (HUFEC) of 42.9%.

Compound `CCNC(=O)O[C@@H]1OC=C(C(=O)OC)[C@H]2CC=C(C)[C@@H]12` [I-151] has an inhibition at 320 µM (stock) [1] of 38.1% and an inhibition at 320 µM (stock) (HUFEC) of 35.9%.

For `COC(=O)C1=COC[C@@H]2C(COC(=O)NCCCl)=CC[C@H]12` [I-296], the inhibition at 320 µM (stock) [1] was 21.3% and the inhibition at 320 µM (stock) (HUFEC) was 19.9%.

Compound `COC(=O)C1=CO[C@@H](OC(=O)NCc2cccc(F)c2)[C@H]2[C@@H]1CC[C@@H]2C` [I-232] has an inhibition at 320 µM (stock) [1] of 2.9% and an inhibition at 320 µM (stock) (HUFEC) of 6.5%.

Work on `COC(=O)C1=CO[C@@H](OC(=O)N(C)C)[C@@H]2C(C)=CC[C@H]12` [I-136] yielded an inhibition at 320 µM (stock) [1] of 15.6% and an inhibition at 320 µM (stock) (HUFEC) of 8.3%.
